# From patent US20260285850A1, “SUBSTITUTED OXAZOLIDINONES AND IMIDAZOLINONES AS HERBICIDES” (FMC CORPORATION, priority 2023, published 2026)
# Tests used:
# Assay type in all cases: in vivo
# rice (Oryza sativa) = test: Test B flooded paddy test, visual plant response rating 0-100; settings: 250 g ai/ha, Flood, applied to paddy water, evaluated after 13 days
# In short: (§1)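 Visual evaluation after 13 days. Water-applied treatment, 3 cm flood depth held constant, plants at 2-leaf stage at treatment.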
# [1] = system: barnyardgrass (Echinochloa crusgalli); test: as above; settings: 250 g ai/ha, Flood, applied to paddy water, evaluated after 13 days
# In short: as §1
# [2] = system: sedge, umbrella (small-flower umbrella sedge, Cyperus difformis); test: as above; settings: 250 g ai/ha, Flood, applied to paddy water, evaluated after 13 days
# In short: as §1
# [3] = system: ducksalad (Heteranthera limosa); test: as above; settings: 250 g ai/ha, Flood, applied to paddy water, evaluated after 13 days
# In short: as §1
# [4] = system: barnyardgrass (Echinochloa crus-galli); test: Test A postemergence application, visual injury rating 0-100; settings: 10 days
# In short: (§2)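 Rating: visual, day 10, untreated plants as reference, 0 no effect to 100 full control. Plants were in loam-sand and were treated either preemergence via directed soil spray or postemergence at the one- to two-leaf stage.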
# corn (Zea mays) [5] = test: as above; settings: 10 days
# In short: as §2
# kochia (Bassia scoparia) [6] = test: as above; settings: 10 days
# In short: as §2
# [7] = system: oat, wild (wild oat, Avena fatua); test: as above; settings: 10 days
# In short: as §2
# [8] = system: ragweed (common ragweed, Ambrosia artemisiifolia); test: as above; settings: 10 days
# In short: as §2
# [9] = system: palmer (palmer amaranth, palmer pigweed, Amaranthus palmeri); test: as above; settings: 10 days
# In short: as §2
# [10] = system: ryegrass, Italian (italian ryegrass, Lolium multiflorum); test: as above; settings: 10 days
# In short: as §2
# [11] = system: wheat (Triticum aestivum); test: as above; settings: 10 days
# In short: as §2
# [12] = system: green foxtail (Setaria viridis); test: as above; settings: 10 days
# In short: as §2
# soybean (Glycine max) [13] = test: as above; settings: 10 days
# In short: as §2
# [14] = system: blackgrass (Alopecurus myosuroides); test: as above; settings: 10 days
# In short: as §2
# [15] = system: horseweed (Erigeron canadensis); test: as above; settings: 10 days
# In short: as §2
# [16] = system: barnyardgrass (Echinochloa crus-galli); test: Test A preemergence soil spray, visual injury rating 0-100; settings: 10 days, 0 = no effect, 100 = complete control
# In short: as §2
# corn (Zea mays) [17] = test: as above; settings: 10 days, 0 = no effect, 100 = complete control
# In short: as §2
# kochia (Bassia scoparia) [18] = test: as above; settings: 10 days, 0 = no effect, 100 = complete control
# In short: as §2
# [19] = system: oat, wild (wild oat, Avena fatua); test: as above; settings: 10 days, 0 = no effect, 100 = complete control
# In short: as §2
# [20] = system: ragweed (common ragweed, Ambrosia artemisiifolia); test: as above; settings: 10 days, 0 = no effect, 100 = complete control
# In short: as §2
# [21] = system: palmer (palmer amaranth, palmer pigweed, Amaranthus palmeri); test: as above; settings: 10 days, 0 = no effect, 100 = complete control
# In short: as §2
# [22] = system: ryegrass, Italian (italian ryegrass, Lolium multiflorum); test: as above; settings: 10 days, 0 = no effect, 100 = complete control
# In short: as §2
# [23] = system: wheat (Triticum aestivum); test: as above; settings: 10 days, 0 = no effect, 100 = complete control
# In short: as §2
# [24] = system: green foxtail (Setaria viridis); test: as above; settings: 10 days, 0 = no effect, 100 = complete control
# In short: as §2
# soybean (Glycine max) [25] = test: as above; settings: 10 days, 0 = no effect, 100 = complete control
# In short: as §2
# [26] = system: blackgrass (Alopecurus myosuroides); test: as above; settings: 10 days, 0 = no effect, 100 = complete control
# In short: as §2
# [27] = 31 g ai/ha, postemergence, 0 = no effect, 100 = complete control
# [28] = Postemergence, 125 g ai/ha, 0 is no effect, 100 is complete control
compound,measurement,setting,value
COC(=O)C1CCC(NC(=O)C2(C)CN(c3cc(F)cc(F)c3)C(=O)O2)C1 (centres unmarked) [Compounds 10],"Plant response rating, Rice (0 to 100 scale, 0 is no effect and 100 is complete control)",rice (Oryza sativa),10
same,"Plant response rating, Barnyardgrass (0 to 100 scale, 0 is no effect and 100 is complete control)",[1],50
same,"Plant response rating, Sedge, Umbrella (0 to 100 scale, 0 is no effect and 100 is complete control)",[2],100
same,"Plant response rating, Ducksalad (0 to 100 scale, 0 is no effect and 100 is complete control)",[3],100
same,Barnyardgrass plant response rating (0-100),[4]; [27],60
same,Barnyardgrass plant response rating (0 to 100 scale),[4]; [28],100
same,Corn plant response rating (0-100),corn (Zea mays) [5]; [27],40
same,Corn plant response rating (0 to 100 scale),corn (Zea mays) [5]; [28],100
same,Kochia plant response rating (0-100),kochia (Bassia scoparia) [6]; [27],20
same,Kochia plant response rating (0 to 100 scale),kochia (Bassia scoparia) [6]; [28],70
same,"Oat, Wild plant response rating (0-100)",[7]; [27],90
same,"Oat, Wild plant response rating (0 to 100 scale)",[7]; [28],90
same,Ragweed plant response rating (0-100),[8]; [27],0
same,Ragweed plant response rating (0 to 100 scale),[8]; [28],0
same,"Amaranth, Palmer plant response rating (0-100)",[9]; [27],10
same,"Amaranth, Palmer / Pigweed, Palmer plant response rating (0 to 100 scale)",[9]; [28],80
same,"Ryegrass, Italian plant response rating (0-100)",[10]; [27],60
same,"Ryegrass, Italian plant response rating (0 to 100 scale)",[10]; [28],80
same,Wheat plant response rating (0-100),[11]; [27],80
same,Wheat plant response rating (0 to 100 scale),[11]; [28],90
same,"Foxtail, Green plant response rating (0-100)",[12]; [27],20
same,"Foxtail, Green plant response rating (0 to 100 scale)",[12]; [28],90
same,Soybean plant response rating (0-100),soybean (Glycine max) [13]; [27],50
same,Soybean plant response rating (0 to 100 scale),soybean (Glycine max) [13]; [28],70
same,Blackgrass plant response rating (0-100),[14]; [27],50
same,Blackgrass plant response rating (0 to 100 scale),[14]; [28],90
same,Horseweed plant response rating (0-100),[15]; [27],30
same,Horseweed plant response rating (0 to 100 scale),[15]; [28],40
same,Barnyardgrass plant response rating (0-100),[16]; 31 g ai/ha,10
same,Barnyardgrass plant response rating (0 to 100 scale),[16]; 125 g ai/ha,90
same,Corn plant response rating (0-100),corn (Zea mays) [17]; 31 g ai/ha,0
same,Corn plant response rating (0 to 100 scale),corn (Zea mays) [17]; 125 g ai/ha,70
same,Kochia plant response rating (0-100),kochia (Bassia scoparia) [18]; 31 g ai/ha,20
same,Kochia plant response rating (0 to 100 scale),kochia (Bassia scoparia) [18]; 125 g ai/ha,90
same,"Oat, Wild plant response rating (0-100)",[19]; 31 g ai/ha,50
same,"Oat, Wild plant response rating (0 to 100 scale)",[19]; 125 g ai/ha,80
same,Ragweed plant response rating (0-100),[20]; 31 g ai/ha,0
same,Ragweed plant response rating (0 to 100 scale),[20]; 125 g ai/ha,0
same,"Amaranth, Palmer plant response rating (0-100)",[21]; 31 g ai/ha,0
same,"Amaranth, Palmer plant response rating (0 to 100 scale)",[21]; 125 g ai/ha,40
same,"Ryegrass, Italian plant response rating (0-100)",[22]; 31 g ai/ha,10
same,"Ryegrass, Italian plant response rating (0 to 100 scale)",[22]; 125 g ai/ha,90
same,Wheat plant response rating (0-100),[23]; 31 g ai/ha,90
same,Wheat plant response rating (0 to 100 scale),[23]; 125 g ai/ha,90
same,"Foxtail, Green plant response rating (0-100)",[24]; 31 g ai/ha,0
same,"Foxtail, Green plant response rating (0 to 100 scale)",[24]; 125 g ai/ha,90
same,Soybean plant response rating (0-100),soybean (Glycine max) [25]; 31 g ai/ha,10
same,Soybean plant response rating (0 to 100 scale),soybean (Glycine max) [25]; 125 g ai/ha,50
same,Blackgrass plant response rating (0-100),[26]; 31 g ai/ha,30
same,Blackgrass plant response rating (0 to 100 scale),[26]; 125 g ai/ha,90
